# According to ChEMBL document CHEMBL1201862, “PubChem BioAssay data set” (2004):
# Calls of active or inactive are those of the source.
# Key:
# [1] = target: Mitogen-activated protein kinase kinase kinase kinase 4 (Homo sapiens, UniProt O95819); assay type: functional
# [2] = target: Mitogen-activated protein kinase 9 (Homo sapiens, UniProt P45984); assay type: functional;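 note: value from a kinome panel profiling assay, MAPK9 panel entry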
# [3] = target: STE20-like serine/threonine-protein kinase (Homo sapiens, UniProt Q9H2G2); assay type: functional
# [4] = target: Tyrosine-protein kinase FRK (Homo sapiens, UniProt P42685); assay type: functional;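 note: FRK tested as one member of a kinome panel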
# [5] = target: Mast/stem cell growth factor receptor Kit (Homo sapiens, UniProt P10721); assay type: functional;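 note: KIT entry within a kinase panel assay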
# [6] = target: Ephrin type-A receptor 2 (Homo sapiens, UniProt P29317); assay type: functional;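 note: EPHA2 tested as one member of a kinome-wide kinase panel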
# [7] = target: Proto-oncogene tyrosine-protein kinase ROS (Homo sapiens, UniProt P08922); assay type: functional;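 note: ROS1 tested as one member of a kinome-wide kinase panel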
# [8] = target: T1, Dual specificity protein phosphatase 6 (Rattus norvegicus, UniProt Q64346); experiment: MKP-3 phosphatase inhibitors, primary screen, biochemical, rat enzyme, in vitro (AID 425)
# T1 sequence (Q64346 whole entry): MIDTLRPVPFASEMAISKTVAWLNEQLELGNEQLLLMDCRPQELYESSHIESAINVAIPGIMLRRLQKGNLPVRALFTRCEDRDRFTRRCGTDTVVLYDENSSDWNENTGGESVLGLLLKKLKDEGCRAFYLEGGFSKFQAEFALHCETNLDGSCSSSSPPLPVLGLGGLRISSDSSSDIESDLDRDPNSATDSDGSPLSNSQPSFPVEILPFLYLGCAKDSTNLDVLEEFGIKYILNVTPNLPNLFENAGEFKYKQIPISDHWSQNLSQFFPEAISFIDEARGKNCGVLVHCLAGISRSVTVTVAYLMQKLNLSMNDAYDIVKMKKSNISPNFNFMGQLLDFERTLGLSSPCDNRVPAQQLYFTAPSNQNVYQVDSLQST
# [9] = Shn3 3'UTR reporter inhibitors, dose response, cell-based, Clone20 osteoblasts, firefly luciferase, cherry-picked (AID 624132); assay type: functional;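 note: firefly luciferase luminescence from reporter carrying the Shn3 3'UTR in osteoblasts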
# [10] = target: Dual specificity tyrosine-phosphorylation-regulated kinase 1A (Rattus norvegicus, UniProt Q63470); assay type: biochemical, Homo sapiens
# [11] = inhibitors of CMV-promoter luciferase reporter, dose response, counter-screen for Pax8 inhibitor project, cell-based, HEK293, luminescence, dry powder (AID 743020); assay type: functional
# [12] = target: T2, Replicative DNA helicase DnaB (Mycobacterium tuberculosis, UniProt P9WMR3); experiment: DnaB Intein secondary assay Measured in Biochemical System Using Plate Reader - 2047-04_Inhibitor_Dose_DryPowder_Activity. [Related pubchem assays (depositor defined):AID2223]
# T2 sequence (P9WMR3 whole entry): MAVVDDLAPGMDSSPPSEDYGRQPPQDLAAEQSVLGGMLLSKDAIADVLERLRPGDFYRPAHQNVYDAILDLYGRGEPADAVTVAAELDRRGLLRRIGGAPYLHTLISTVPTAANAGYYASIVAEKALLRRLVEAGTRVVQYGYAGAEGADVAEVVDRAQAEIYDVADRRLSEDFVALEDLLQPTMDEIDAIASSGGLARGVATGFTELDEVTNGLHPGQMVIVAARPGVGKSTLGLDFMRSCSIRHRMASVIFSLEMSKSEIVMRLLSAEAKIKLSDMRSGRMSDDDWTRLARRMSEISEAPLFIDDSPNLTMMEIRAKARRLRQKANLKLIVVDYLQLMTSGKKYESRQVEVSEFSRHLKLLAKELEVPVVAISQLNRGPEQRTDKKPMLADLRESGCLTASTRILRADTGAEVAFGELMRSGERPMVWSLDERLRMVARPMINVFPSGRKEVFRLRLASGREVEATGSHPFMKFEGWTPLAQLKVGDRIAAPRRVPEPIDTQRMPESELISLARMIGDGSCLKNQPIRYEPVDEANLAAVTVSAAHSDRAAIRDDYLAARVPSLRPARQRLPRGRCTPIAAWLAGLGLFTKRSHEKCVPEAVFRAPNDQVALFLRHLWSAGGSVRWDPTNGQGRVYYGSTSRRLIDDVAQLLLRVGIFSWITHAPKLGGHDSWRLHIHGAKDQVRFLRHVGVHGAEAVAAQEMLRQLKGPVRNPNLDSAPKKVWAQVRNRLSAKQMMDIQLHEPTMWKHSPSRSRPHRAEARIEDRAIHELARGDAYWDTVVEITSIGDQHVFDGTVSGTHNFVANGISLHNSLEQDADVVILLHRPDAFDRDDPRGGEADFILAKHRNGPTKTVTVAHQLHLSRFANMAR
# [13] = target: Tyrosine-protein phosphatase non-receptor type 22 (Homo sapiens, UniProt Q9Y2R2); assay type: functional;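 note: confirmatory dose-response retest of primary uHTS hits for inhibition of LYP phosphatase, measured by a fluorescence intensity read-out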
# [14] = system: HT-1080; experiment: cytotoxicity in HT1080 fibrosarcoma cells, cell-based, fluorescence readout (AID 620); assay type: functional; details: Homo sapiens
# Chain of Mitogen-activated protein kinase 9 (P45984 whole entry): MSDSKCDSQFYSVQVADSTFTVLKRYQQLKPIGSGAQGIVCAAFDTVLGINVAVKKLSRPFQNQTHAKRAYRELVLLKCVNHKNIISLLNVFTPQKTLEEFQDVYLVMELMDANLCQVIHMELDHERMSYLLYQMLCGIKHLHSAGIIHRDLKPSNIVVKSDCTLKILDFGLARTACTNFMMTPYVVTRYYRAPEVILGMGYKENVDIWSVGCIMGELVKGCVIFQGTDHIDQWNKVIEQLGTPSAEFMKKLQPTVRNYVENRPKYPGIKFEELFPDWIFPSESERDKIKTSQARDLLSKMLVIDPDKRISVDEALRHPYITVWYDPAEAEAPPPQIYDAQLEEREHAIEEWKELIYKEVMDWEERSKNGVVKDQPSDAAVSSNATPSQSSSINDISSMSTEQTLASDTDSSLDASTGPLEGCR
# Chain of Mast/stem cell growth factor receptor Kit (P10721 whole entry): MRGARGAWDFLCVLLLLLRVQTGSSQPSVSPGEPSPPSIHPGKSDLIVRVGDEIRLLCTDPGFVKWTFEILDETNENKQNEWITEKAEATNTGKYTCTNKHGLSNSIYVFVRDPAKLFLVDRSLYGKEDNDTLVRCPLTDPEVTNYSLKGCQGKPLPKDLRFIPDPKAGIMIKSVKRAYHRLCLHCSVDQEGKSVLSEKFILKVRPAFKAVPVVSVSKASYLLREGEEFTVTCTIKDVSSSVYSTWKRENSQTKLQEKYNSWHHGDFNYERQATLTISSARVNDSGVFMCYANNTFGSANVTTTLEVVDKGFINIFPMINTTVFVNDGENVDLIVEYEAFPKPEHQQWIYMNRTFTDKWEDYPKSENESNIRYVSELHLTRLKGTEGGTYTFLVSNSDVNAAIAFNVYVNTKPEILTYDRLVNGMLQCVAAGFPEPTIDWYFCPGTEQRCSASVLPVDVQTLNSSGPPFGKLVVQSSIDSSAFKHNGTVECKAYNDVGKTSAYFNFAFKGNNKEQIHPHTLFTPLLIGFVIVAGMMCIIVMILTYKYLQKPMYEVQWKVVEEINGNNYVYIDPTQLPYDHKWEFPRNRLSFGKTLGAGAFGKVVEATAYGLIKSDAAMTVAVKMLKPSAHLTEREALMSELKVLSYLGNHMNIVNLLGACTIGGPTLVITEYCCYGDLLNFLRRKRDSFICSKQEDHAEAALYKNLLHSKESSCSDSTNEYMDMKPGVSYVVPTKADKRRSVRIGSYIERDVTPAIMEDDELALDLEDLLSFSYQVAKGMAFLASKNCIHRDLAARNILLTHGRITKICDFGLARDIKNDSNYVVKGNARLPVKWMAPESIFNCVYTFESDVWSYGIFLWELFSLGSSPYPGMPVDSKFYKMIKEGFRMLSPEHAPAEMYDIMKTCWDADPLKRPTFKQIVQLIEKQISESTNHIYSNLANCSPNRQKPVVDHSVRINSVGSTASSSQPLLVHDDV
# Chain of Ephrin type-A receptor 2 (P29317 whole entry): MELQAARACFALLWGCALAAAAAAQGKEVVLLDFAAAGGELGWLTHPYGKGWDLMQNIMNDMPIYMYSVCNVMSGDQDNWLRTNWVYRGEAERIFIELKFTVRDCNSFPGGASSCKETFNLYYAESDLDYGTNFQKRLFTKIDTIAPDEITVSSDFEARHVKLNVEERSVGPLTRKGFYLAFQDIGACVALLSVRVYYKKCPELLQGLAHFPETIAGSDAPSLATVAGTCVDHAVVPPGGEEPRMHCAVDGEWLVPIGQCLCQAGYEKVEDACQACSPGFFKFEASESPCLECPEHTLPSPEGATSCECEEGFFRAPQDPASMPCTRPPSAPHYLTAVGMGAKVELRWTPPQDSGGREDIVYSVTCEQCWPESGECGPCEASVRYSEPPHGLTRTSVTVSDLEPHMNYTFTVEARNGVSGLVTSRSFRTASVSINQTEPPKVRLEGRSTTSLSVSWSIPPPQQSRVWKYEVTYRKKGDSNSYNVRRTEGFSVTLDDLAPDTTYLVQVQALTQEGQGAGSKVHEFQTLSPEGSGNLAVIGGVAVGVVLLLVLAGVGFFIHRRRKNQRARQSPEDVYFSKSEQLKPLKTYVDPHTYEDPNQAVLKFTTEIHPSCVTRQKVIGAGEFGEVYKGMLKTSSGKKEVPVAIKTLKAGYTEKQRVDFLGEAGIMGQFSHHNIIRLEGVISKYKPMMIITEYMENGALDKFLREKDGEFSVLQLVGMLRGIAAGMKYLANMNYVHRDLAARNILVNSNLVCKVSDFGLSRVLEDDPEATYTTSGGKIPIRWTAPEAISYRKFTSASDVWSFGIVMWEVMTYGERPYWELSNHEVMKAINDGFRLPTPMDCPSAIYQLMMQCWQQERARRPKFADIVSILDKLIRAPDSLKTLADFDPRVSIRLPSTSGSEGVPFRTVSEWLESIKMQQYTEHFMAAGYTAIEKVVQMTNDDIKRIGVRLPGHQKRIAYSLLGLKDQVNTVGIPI
# Chain of Mitogen-activated protein kinase kinase kinase kinase 4 (O95819 whole entry): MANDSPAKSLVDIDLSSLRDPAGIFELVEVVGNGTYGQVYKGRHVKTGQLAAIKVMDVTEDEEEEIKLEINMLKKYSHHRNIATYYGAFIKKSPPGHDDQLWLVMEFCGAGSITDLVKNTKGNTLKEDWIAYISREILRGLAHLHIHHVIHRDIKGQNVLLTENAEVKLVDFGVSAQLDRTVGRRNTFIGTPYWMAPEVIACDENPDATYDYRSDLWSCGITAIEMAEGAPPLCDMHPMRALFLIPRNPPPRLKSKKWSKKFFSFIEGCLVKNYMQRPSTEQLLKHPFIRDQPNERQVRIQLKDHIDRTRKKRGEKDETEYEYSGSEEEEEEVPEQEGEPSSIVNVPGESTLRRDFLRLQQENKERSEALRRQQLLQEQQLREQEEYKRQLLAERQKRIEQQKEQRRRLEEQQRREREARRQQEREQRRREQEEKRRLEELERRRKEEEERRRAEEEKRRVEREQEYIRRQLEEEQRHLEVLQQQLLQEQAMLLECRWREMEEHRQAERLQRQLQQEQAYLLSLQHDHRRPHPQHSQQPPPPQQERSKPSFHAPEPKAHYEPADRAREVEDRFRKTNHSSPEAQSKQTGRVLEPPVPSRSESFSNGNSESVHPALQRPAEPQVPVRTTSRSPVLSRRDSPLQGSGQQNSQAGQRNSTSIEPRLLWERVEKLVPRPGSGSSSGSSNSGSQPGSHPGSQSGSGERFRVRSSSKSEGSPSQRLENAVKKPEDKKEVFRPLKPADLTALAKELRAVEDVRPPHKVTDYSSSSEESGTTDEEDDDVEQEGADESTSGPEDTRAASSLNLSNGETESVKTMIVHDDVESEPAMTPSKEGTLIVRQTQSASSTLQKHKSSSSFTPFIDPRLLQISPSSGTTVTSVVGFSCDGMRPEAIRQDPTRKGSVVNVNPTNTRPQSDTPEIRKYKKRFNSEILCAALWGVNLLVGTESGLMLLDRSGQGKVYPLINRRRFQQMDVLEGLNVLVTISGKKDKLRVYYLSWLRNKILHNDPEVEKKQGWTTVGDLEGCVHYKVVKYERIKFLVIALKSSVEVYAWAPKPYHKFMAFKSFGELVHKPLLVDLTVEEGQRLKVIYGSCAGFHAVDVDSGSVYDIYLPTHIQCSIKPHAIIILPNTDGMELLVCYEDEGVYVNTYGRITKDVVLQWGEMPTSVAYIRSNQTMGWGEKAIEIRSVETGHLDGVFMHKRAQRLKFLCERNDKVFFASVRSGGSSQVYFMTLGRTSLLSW
# Chain of STE20-like serine/threonine-protein kinase (Q9H2G2 whole entry): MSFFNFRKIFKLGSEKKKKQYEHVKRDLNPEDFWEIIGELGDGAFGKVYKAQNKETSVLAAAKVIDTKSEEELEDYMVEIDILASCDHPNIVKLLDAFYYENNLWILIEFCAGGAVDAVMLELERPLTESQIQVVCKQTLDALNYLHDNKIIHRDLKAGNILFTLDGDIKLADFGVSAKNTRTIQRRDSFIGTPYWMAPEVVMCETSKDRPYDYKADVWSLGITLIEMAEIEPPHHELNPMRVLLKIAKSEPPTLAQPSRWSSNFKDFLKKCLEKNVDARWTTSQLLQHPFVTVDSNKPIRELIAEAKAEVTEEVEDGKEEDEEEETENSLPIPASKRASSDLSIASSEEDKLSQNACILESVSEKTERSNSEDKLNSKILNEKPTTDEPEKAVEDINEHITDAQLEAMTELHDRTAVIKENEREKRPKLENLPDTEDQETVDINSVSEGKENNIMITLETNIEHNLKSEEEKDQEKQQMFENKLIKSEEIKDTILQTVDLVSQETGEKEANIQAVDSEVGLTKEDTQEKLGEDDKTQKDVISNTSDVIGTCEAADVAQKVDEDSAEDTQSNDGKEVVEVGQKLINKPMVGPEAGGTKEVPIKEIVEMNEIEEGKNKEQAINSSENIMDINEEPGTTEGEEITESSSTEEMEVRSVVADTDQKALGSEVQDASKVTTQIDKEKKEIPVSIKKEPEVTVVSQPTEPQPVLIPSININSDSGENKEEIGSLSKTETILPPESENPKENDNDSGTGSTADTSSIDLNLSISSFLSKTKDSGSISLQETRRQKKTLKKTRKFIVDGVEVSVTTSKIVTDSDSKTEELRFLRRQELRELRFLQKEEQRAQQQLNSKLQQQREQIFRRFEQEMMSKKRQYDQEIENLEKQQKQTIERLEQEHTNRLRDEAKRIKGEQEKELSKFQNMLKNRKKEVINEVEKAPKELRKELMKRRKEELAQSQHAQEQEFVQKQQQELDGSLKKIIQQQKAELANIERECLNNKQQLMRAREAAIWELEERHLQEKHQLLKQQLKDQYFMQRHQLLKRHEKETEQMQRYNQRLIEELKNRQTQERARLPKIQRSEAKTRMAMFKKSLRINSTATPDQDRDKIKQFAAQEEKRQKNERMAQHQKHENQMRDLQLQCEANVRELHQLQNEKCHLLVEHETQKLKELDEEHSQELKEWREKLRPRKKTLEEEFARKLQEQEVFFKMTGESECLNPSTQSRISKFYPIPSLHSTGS
smiles,measurement,setting,value
COc1cc2c(cc1Nc1nc(Nc3cccc(F)c3C(N)=O)c3cc[nH]c3n1)N(C(=O)CN(C)C)CC2,Ki,[1],> 5010 nM (inactive)
same,Ki,[2],631 nM (active)
same,Ki,[3],> 10000 nM (inactive)
same,Ki,[4],> 2510 nM (inactive)
same,Ki,[5],> 1260 nM (inactive)
same,Ki,[6],> 3160 nM (inactive)
same,Ki,[7],2.51 nM (active)
CCn1nc(/C=C/c2ccccc2)nc2c(=O)n(C)c(=O)nc1-2,IC50,[8],< 1230 nM (not active)
same,AC50,[9],2570 nM (active)
same,AC50,[10],281 nM (active)
same,AC50,[11],< 704 nM (active)
same,AC50,[12],184 nM (active)
same,IC50,[13],11700 nM (active)
CC(C)c1ccc(-c2nnn(CCC(=O)O)n2)cc1,EC50,[14],> 50000 nM (not active)
